In data set [1] the test system is Serratia marcescens (bacterium 2 isolated from a food factory). The experiment in a line: Test for inhibition of drug resistance development (repeated MIC, broth microdilution). It is filed as cell-based. Particulars: sample bacteria (iii) and (iv), eight MIC rounds, as compared to DDAC. The procedure:
According to the standard method (broth microdilution method) of Japanese Society of Chemotherapy, minimal inhibitory concentration (MIC) was continuously measured. The compositions shown in Table 7 were diluted with sterile water to obtain drug solutions with a concentration of the composition of 0.007 to 1.792% by weight, and a nutrient broth medium adjusted to a concentration twice as high as the specified concentration (manufactured by Eiken Chemical Co., Ltd., normal bouillon medium ‘Eiken’ E-MC35) was added thereto in an amount equal to the drug solution. The obtained mixture was stirred and then dispensed to a microtiter plate (96 well) in an amount of 150 μl/well. […] The diluted culture was then seeded in an amount of 7.5 μl/well to the microtiter plate containing the medium prepared as described above. The plate was incubated in a constant temperature oven at 30° C. for 48 hours, the growth of the bacterium was checked by visual inspection, and MIC was determined. […] Using the diluted culture, MIC was determined again in the same manner as described above. MIC was determined eight times in total by repeating the above procedure, and changes in MIC were confirmed.
Sample Bacterium (iii): Serratia marcescens (Bacterium 2 Isolated from a Food Factory)

The conditions of data set [2]: cited from earlier work.
The subject of data set [3] is Serratia marcescens (bacterium 1 isolated from a food factory). Particulars: preliminary test, sensitization time 5 minutes.
Experimental: The following sample bacterium (i) isolated from a food factory was cultured in a BHI bouillon medium at 30° C. for 24 hours. A 0.03 ml of a liquid obtained by diluting the cultured bacterium with a physiological saline solution to the concentration on the order of 10^6 cfu/ml was mixed with respective 3 ml of aqueous solutions, each of which was obtained by diluting an aqueous solution of the above solid germicidal composition (1.0% by weight) with sterile water so that the concentration of the solid germicidal composition would be 0.01, 0.02 and 0.04% by weight, respectively. The obtained mixture was then left at 25° C. for 5 minutes. After sensitization time elapsed, stirring was carried out again. One platinum loop of each mixture was taken and inoculated in 10 ml of a BHI bouillon medium. The medium was incubated at 30° C. for 48 hours. A BHI bouillon medium without inoculation of the bacterium was used as a reference, and turbidity of the medium was compared with the reference by visual inspection to determine the germicidal effect of the aqueous solution of the solid germicidal composition on the bacterium.
Sample Bacterium (i): Serratia marcescens (Bacterium 1 Isolated from a Food Factory)

Consider `CCCCCCCCCC[n+]1ccn(CCCCCCCCCCn2cc[n+](CCCCCCCCCC)c2C)c1C.[Cl-].[Cl-]` [1,10-di(3-decyl-2-methylimidazolium)decane dichloride], for which the “development of drug-resistant microorganisms” value in data set [1] is recorded as “hardly developed”.

For the molecule `O=C(O)CC(O)C(=O)O` (stereo not shown) [Malic acid], in data set [2], the “solubility in water at 20° C.” value was “(solubility 55.8%)”.

Turning to `O=C(O)/C=C/C(=O)O` [Fumaric acid], the “solubility in water at 20° C.” value in data set [2] was “(solubility 0.51%)”.

For `CCCCCCCCCC[N+](C)(C)CCCCCCCCCC.[Cl-]` [didecyl dimethyl ammonium chloride], the “maximum concentration up to which proliferation of sample bacterium (i) was not inhibited” value in data set [3] is on record as over 80 ppm.

(Values after patent US8697701B2, “Solid germicidal composition and disinfection method” (Ueno Fine Chemicals Industry, Ltd., priority 2012, dated 2014).)
